Data as given in patent US6498139B1, “Remedies for diseases caused by insulin resistance” (Daiichi Pharmaceutical Co., Ltd., priority 1997, dated 2002).

System: 14-3-3 protein binding to IRS-1
Test: Amount of 14-3-3 protein binding to IRS-1 in HepG2 hepatoma cells overexpressing IRS-1
Assay type: cell-based
Details: IRS-1 overexpressed by adenovirus expression system

## C=C1[C@@H](O)[C@@H]2O[C@]3(CC[C@H](/C=C/[C@@H](C)[C@@H]4CC(C)=C[C@@]5(O[C@H](C[C@@](C)(O)C(=O)O)CC[C@H]5O)O4)O3)CC[C@H]2O[C@@H]1[C@@H](O)C[C@H](C)[C@H]1O[C@@]2(CCCCO2)CC[C@H]1C [okadaic acid]
  amount of 14-3-3 protein binding to IRS-1: significantly increased

## insulin
  amount of 14-3-3 protein binding to IRS-1: not changed
